Data taken from patent US10501482B2, “Compounds for treating spinal muscular atrophy” (Hoffmann-La Roche Inc., priority 2013, dated 2019).
Structures can show the parent of a compound that is named as a salt.

Assays:
[1] = test system: full length SMN2 minigene mRNA (FL SMN2mini) in HEK293H cells stably transfected with the SMN2-A minigene construct; assay: SMN2 minigene mRNA splicing RT-qPCR assay in cultured cells; format: cell-based; conditions: Homo sapiens, HEK293-H, 24 hours, 7-point concentration curve, concentration giving 1.5-fold FL SMN2mini mRNA vs vehicle, read-out: EC1.5x minigene (EC1.5x concentration for production of full length SMN2 minigene mRNA)
Experimental: The reverse transcription-quantitative PCR-based (RT-qPCR) assay is used to quantify the level of the full length SMN2 minigene (referred to herein by the term “FL SMN2mini”) mRNA containing SMN2 exon 7 in a HEK293H cell line stably transfected with said minigene and treated with a test compound.
The SMN2-A minigene construct was prepared as described in International Patent Application WO2009/151546A1 page 145 paragraph [00400] to page 147 paragraph [00412](incl. FIG. 1 and FIG. 3 therein).
HEK293H cells stably transfected with the SMN2-A minigene construct (10,000 cells/well) are seeded in 200 μL of cell culture medium (DMEM plus 10% FBS, with 200 μg/mL hygromycin) in 96-well flat-bottom plates and the plate is immediately swirled to ensure proper dispersal of cells and the formation of an even monolayer of cells. Cells are allowed to attach for 6 hours. […] A solution of test compound (1 μL, 200× in DMSO) is added to each cell-containing well and the plate is incubated for 24 hours in a cell culture incubator (37° C., 5% CO2, 100% relative humidity). 2 replicates are prepared for each test compound concentration. The cells are then lysed in the Cells-To-Ct lysis buffer and the lysate is stored at −80° C.
Full length SMN2-A minigene and GAPDH mRNA are quantified using the primers and probes referenced in Table 1. Primer SMN Forward A (SEQ ID NO.1) hybridizes to a nucleotide sequence in exon 7 (nucleotide 22 to nucleotide 40), primer SMN Reverse A (SEQ ID NO.2) hybridizes to a nucleotide sequence in the coding sequence of Firefly luciferase, SMN Probe A (SEQ ID NO.3) hybridizes to a nucleotide sequence in exon 7 (nucleotide 50 to nucleotide 54) and exon 8 (nucleotide 1 to nucleotide 21). The combination of these three oligonucleotides detects only SMN1 or SMN2 minigenes (RT-qPCR) and will not detect endogenous SMN1 or SMN2 genes.
The SMN forward and reverse primers are used at final concentrations of 0.4 μM. The SMN probe is used at a final concentration of 0.15 μM. The GAPDH primers are used at final concentrations of 0.2 μM and the probe at 0.15 μM.
The SMN2-minigene GAPDH mix (15 μL total volume) is prepared by combining 7.5 μL of 2×RT-PCR buffer, 0.4 μL of 25×RT-PCR enzyme mix, 0.75 μL of 20×GAPDH primer-probe mix, 4.0075 μL of water, 2 μL of 10-fold diluted cell lysate, 0.06 μL of 100 μM SMN forward primer, 0.06 μL of 100 μM SMN reverse primer, and 0.225 μL of 100 μM SMN probe.
PCR is carried out at the following temperatures for the indicated time: Step 1: 48° C. (15 min); Step 2: 95° C. (10 min); Step 3: 95° C. (15 sec); Step 4: 60° C. (1 min); then repeat Steps 3 and 4 for a total of 40 cycles.
Each reaction mixture contains both SMN2-A minigene and GAPDH primers/probe sets (multiplex design), allowing simultaneous measurement of the levels of two transcripts.
The increase in the abundance of the FL SMN2mini mRNA relative to that in cells treated with vehicle control is determined from real-time PCR data using a modified ΔΔCt method (as described in Livak and Schmittgen, Methods, 2001, 25:402-8). The amplification efficiency E is calculated from the slope of the amplification curve for FL SMN2mini and GAPDH individually. The abundance of FL SMN2mini and GAPDH mRNA are then calculated as (1+E)^−Ct, where Ct is the threshold value for each amplicon. The abundance of FL SMN2mini mRNA is normalized to GAPDH mRNA abundance. The normalized FL SMN2mini mRNA abundance from test compound-treated samples is then divided by normalized FL SMN2mini mRNA abundance from vehicle-treated cells to determine the level of FL SMN2mini mRNA relative to vehicle control.
Table 2 provides EC1.5x concentrations for production of full length SMN2 minigene mRNA that was obtained from the 7-point concentration data generated according to the above procedure for particular compounds of the present invention.

[2] = test system: SMN protein; assay: SMN protein assay (HTRF) in cultured SMA patient fibroblast cells; format: cell-based; conditions: SMA Type 1 human fibroblasts GM03813, 48 hours; for EC1.5x SMN protein (EC1.5x concentration for SMN protein expression): 7-point concentration curve, concentration giving 1.5 times SMN protein vs vehicle; for max. fold increase (maximum fold increase of SMN protein): 7-point concentration data, fold vs vehicle control
Experimental: The SMN HTRF (homogeneous time resolved fluorescence) assay is used to quantify the level of SMN protein in SMA patient fibroblast cells treated with test compounds.
Cells are thawed and cultured in DMEM-10% FBS for 72 hours. Cells are trypsinized, counted and re-suspended to a concentration of 25,000 cells/mL in DMEM-10% FBS. The cell suspensions are plated at 5,000 cells per well in a 96 well microtiter plate and incubated for 3 to 5 hours. […] 1 μL of test compound solution is transferred to cell-containing wells and cells are incubated for 48 hours in a cell culture incubator (37° C., 5% CO2, 100% relative humidity). Triplicate samples are set up for each test compound concentration. After 48 hours, the supernatant is removed from the wells and 25 μL of the RIPA lysis buffer, containing protease inhibitors, is added to the wells and incubated with shaking at room temperature for 1 hour. 25 μL of the diluent is added and then 35 μL of the resulting lysate is transferred to a 384-well plate, where each well contains 5 μL of the antibody solution (1:100 dilution of anti-SMN d2 and anti-SMN kryptate in SMN reconstitution buffer). The plate is centrifuged for 1 minute to bring the solution to the bottom of the wells, then incubated overnight at room temperature. Fluorescence for each well of the plate at 665 nm and 620 nm is measured on an EnVision multilabel plate reader (Perkin-Elmer).
The normalized fluorescence signal is calculated for each sample, Blank and vehicle control well by dividing the signal at 665 nm by the signal at 620 nm. Normalizing the signal accounts for possible fluorescence quenching due to the matrix effect of the lysate. The ΔF value (a measurement of SMN protein abundance as a percent value) for each sample well is calculated by subtracting the normalized average fluorescence for the Blank control wells from the normalized fluorescence for each sample well, then dividing this difference by the normalized average fluorescence for the Blank control wells and multiplying the resulting value by 100. The ΔF value for each sample well represents the SMN protein abundance from test compound-treated samples. The ΔF value for each sample well is divided by the ΔF value for the vehicle control wells to calculate the fold increase in SMN protein abundance relative to the vehicle control. Table 3 provides EC1.5x concentrations for SMN protein expression that was obtained from the 7-point concentration data generated according to the above procedure for particular compounds of the present invention.
Table 4 provides the maximum fold increase of SMN protein that was obtained from the 7-point concentration data generated according to the above procedure for particular compounds of the present invention

Row | SMILES | EC (1.5-fold) [1] [µM] | EC1.5x SMN protein (EC1.5x concentration for SMN protein expression) [2] [µM] | max. fold increase (maximum fold increase of SMN protein) [2]
1 | Cc1cn2cc(NC(=O)c3ccc(N4CCNC(C)C4)cc3)nc2c(C)n1 (racemic) [Example 2, rac-N-(6,8-dimethyl-imidazo[1,2-a]-pyrazin-2-yl)-4-(3-methylpiperazin-1-yl)benzamide] | 0.14 | 0.2984 | 1.8878
2 | Cc1cn2cc(NC(=O)c3ccc(N4CCN(C)CC4)nc3)nc2c(C)n1 [Example 6, N-(6,8-dimethyl-imidazo[1,2-a]-pyrazin-2-yl)-6-(4-methyl-piperazin-1-yl)nicotinarnide] | 0.233 | 0.5305 | 1.8047
3 | Cc1cn2cc(NC(=O)c3cnc(N4CCNCC4)cc3F)cc(F)c2n1 [Example 68, 4-fluoro-N-(8-fluoro-2-methylimidazo[1,2-a]pyridin-6-yl)-6-(piperazin-1-yl)nicotinamide] | 0.0285 | 0.057 | 1.6943
4 | CCN1CCN(c2ccc(C(=O)Nc3cn4cc(C)nc(C)c4n3)cn2)CC1 [Example 8, N-(6,8-dimethyl-imidazo[1,2-a]-pyrazin-2-yl)-6-(4-ethyl-piperazin-1-yl)nicotinamide] | 0.201 | 0.5175 | 1.7677
5 | Cc1cn2cc(NC(=O)c3ccc(N4CCNC(C)C4)cc3F)c(C)cc2n1 (racemic) [Example 52, rac-N-(2,7-dimethyl-imidazo[1,2-a]-pyridin-6-yl)-2-fluoro-4-(3-methyl-piperazin-1-yl)-benzamide dihydrochloride] | 0.04 | 0.1518 | 1.8152
6 | Cc1cn2cc(NC(=O)c3ccc(N4CCNCC4)nc3F)cc(F)c2n1 [Example 65, 2-fIuoro-N-(8-fluoro-2-methylimidazo[1,2-a]pyridin-6-yl)-6-(piperazin-1-yl)-nicotinamide] | 0.0762 | 0.1135 | 1.7675
7 | Cc1nc2c(F)cc(NC(=O)c3ccc(N4CC(C)NC(C)C4)cc3)cc2o1 (stereo not drawn) [Example 30, 4-(3,5-dimethyl-piperazin-1-yl)-N-(4-fluoro-2-methyl-benzo[d]oxazol-6-yl)benzamide] | 0.41 | 0.7612 | 1.6734
8 | Cc1cn2cc(NC(=O)c3ccc(N4CCNCC4)cc3F)cc(C(F)(F)F)c2n1 [Example 59, 2-fluoro-N-(2-methyl-8-(trifluoromethyl)-imidazo[1,2-a]-pyridin-6-yl)-4-(piperazin-1-yl)-benzamide] | 0.109 | 0.2749 | 1.7116
9 | Cc1cn2cc(NC(=O)c3cnc(N4CCNC(C)C4)c(F)c3)cc(Cl)c2n1 (racemic) [Example 53, rac-N-(8-chloro-2-methylimidazo-[1,2-a]pyridin-6-yl)-5-fluoro-6-(3-methylpiperazin-1-yl)nicotinamide hydrochloride] | 0.21 | 0.7455 | 1.6563
10 | Cc1cn2cc(NC(=O)c3ccc(N4CCNC(C)C4)cc3F)cc(F)c2n1 (racemic) [Example 39, rac-2-fluoro-N-(8-fluoro-2-methyl-imidazo[1,2-a]-pyridin-6-yl)-4-(3-methylpiperazin-1-yl)benzamide dihydrochloride] | 0.0168 | 0.0147 | 1.8791
11 | Cc1cn2cc(NC(=O)c3ccc(N4CCNC(C)C4)cn3)nc2c(C)n1 (racemic) [Example 10, rac-N-(6,8-dimethyl-imidazo[1,2-a]-pyrazin-2-yl)-5-(3-methyl-piperazin-1-yl)picolinamide] | 0.665 | 0.329 | 1.735
12 | Cc1cn2cc(NC(=O)c3ccc(N4CCN(C)CC4)cn3)nc2c(C)n1 [Example 9, N-(6,8-dimethyl-imidazo[1,2-a]-pyrazin-2-yl)-5-(4-methyl-piperazin-1-yl)picolinamide] | 0.794 | 1.527 | 1.6085
13 | Cc1nc2c(F)cc(NC(=O)c3ccc(N4CCNC(C)C4)cc3)cc2o1 (racemic) [Example 29, rac-N-(4-fluoro-2-methylbenzo[d]-oxazol-6-yl)-4-(3-methylpiperazin-1-yl)benzamide] | 0.267 | 0.4618 | 1.632
14 | Cc1cn2cc(NC(=O)c3ccc(N4CCNC(C)C4)cc3F)cc(Cl)c2n1 (racemic) [Example 54, rac-N-(8-chloro-2-methylimidazo-[1,2-a]pyridin-6-yl)-2-fluoro-4-(3-methylpiperazin-1-yl)benzamide dihydrochloride] | 0.0128 | 0.056 | 1.8217
